Read-outs that look alike come from different tables or passages of the source.

One series relates to β-hematin formation. Briefly: β-hematin formation inhibition by infrared spectroscopy. The arrangement: key: Yes indicates β-hematin inhibition; No indicates β-hematin formation. It counts as biochemical. The conditions noted are these: 3:1 ratio of drug:hematin, qualitative by infrared. How it is done: The conversion of hemin to β-hematin was determined by infrared (IR) spectroscopy as described by Egan et al.. […] Then, 0.3 mL of 0.1 M HCl and 1.7 mL of sodium acetate buffer ([…], pH 5) were added at the same temperature. […] The solid was dried and IR spectra were obtained using attenuated total reflection (ATR) using chloroquine as a positive control.

Series [1] concerns P. falciparum 3D7 (CQ-susceptible) asexual blood stages. Briefly: In vitro activity against asexual blood stages of P. falciparum, CQ-susceptible strain 3D7 (HRP2 ELISA). It counts as cell-based. The conditions noted are these: Plasmodium falciparum, 3D7. How it is done:
The plates were incubated for 72 h at 37 °C in controlled atmosphere. After frozen and thawing the plates, hemolyzed cultures were homogenized by vortexing the plates. The antiparasitic activity was determined using the HRP2 ELISA-based assay Malaria Ag Celisa kit (ref KM2159, Cellabs PTY LDT, Brookvale, Australia). […] IC50s are expressed as means of three to five experiments.
For orientation: In an ELISA, binding on a coated surface is turned into a signal by an enzyme label.

Series [2] can be described thus: Cytotoxicity against J774 cells (CellTiter-Glo). Type of series: cell-based, murine. The note with it: mouse, J774 macrophage cells; J774 macrophages, 72 h, CellTiterGlo; at least two experiments; read-out: CC50 ± S.E.M. How it is done:
In vitro cytotoxicity was assayed against two mammalian cell lineages, J774 (murine macrophages) and HepG2 (human hepatocellular carcinoma). […] Cell cultures from 60 to 80% confluence were trypsinized, washed in complete medium, and 4 × 10^4 cells were plated in 100 µL per well with complete medium in 96-well flat-bottom white plates for 24 h at 37 °C prior to the addition of the compounds. Triplicate aliquots of compound and the reference drugs (stock solution in DMSO) covering 7 different concentrations at 2-fold dilutions were added to the wells, and plates were incubated for 72 h more. After incubation for 72 h at 37 °C, plates were maintained at room temperature, the culture medium was removed, and 100 µL volume of CellTiter-Glo reagent was added to each well. The bioluminescence was measured using a microplate reader Filtermax F5 Multi-Mode instrument (Molecular Devices) and Softmax software. […] The selectivity index (S.I.) was estimated using the IC50s from mammalian cells divided by the IC50 obtained against the asexual blood stage P. falciparum.
Background: ATP-based viability assays read luminescence as a measure of living cells.

With `CCN(CC)Cc1cc(Nc2ccnc3cc(Cl)ccc23)ccc1O` [Amodiaquine (AQ), amodiaquine], the “β-Hematin Inhibitory Activity (BHIA) Determined by IR” value in the series on β-hematin formation is listed as “Yes”. Further, the IC50 – broadly, the concentration at which inhibition is half-maximal – in series [1] (72 h incubation, HRP2 ELISA, mean ± S.E.M. of at least three experiments, AQ hydrochloride hydrate, PQ diphosphate, CQ diphosphate, read-out: P. falciparum, IC50 ± S.E.M., CQ-Susceptible 3D7) is 18 ± 1.6 nM; in series [1] (in vitro antiplasmodial activity, read-out: P. falciparum 3D7 (Cell Based Activity), IC50), 18 ± 2 nM. The CC50 (in general, the concentration that lowers cell viability or growth by half) at 72 h in series [2] worked out at 23800 nM.

The values are drawn from publication PMC9229949 (Pharmaceutics, 2022).
